Data taken from publication PMC10815170, “Exploring the Blood Glucose-Lowering Potential of the Umami Peptides LADW and EEAEGT Derived from Tuna Skeletal Myosin: Perspectives from α-Glucosidase Inhibition and Starch Interaction” (Foods, 2024).
Peptide text beside a SMILES is read from it.

What was measured:
[1] = molecular target: T1, α-Glucosidase from Saccharomyces cerevisiae (Saccharomyces cerevisiae, UniProt P53341); test: α-Glucosidase inhibitory activity (pNPG); type: biochemical; conditions: PBS pH 6.8, 37 °C, 405 nm; for α-glucosidase inhibitory rate: 10 mM peptide, pNPG, n = 3; for IC50: 15 min preincubation, pNPG 15 min, mean ± SD (n = 3), read-out: IC50 value, α-glucosidase inhibition
T1 construct: purchased Yuanye Bio-Technology Co., Ltd. (Shanghai, China)
T1 sequence (P53341 whole entry): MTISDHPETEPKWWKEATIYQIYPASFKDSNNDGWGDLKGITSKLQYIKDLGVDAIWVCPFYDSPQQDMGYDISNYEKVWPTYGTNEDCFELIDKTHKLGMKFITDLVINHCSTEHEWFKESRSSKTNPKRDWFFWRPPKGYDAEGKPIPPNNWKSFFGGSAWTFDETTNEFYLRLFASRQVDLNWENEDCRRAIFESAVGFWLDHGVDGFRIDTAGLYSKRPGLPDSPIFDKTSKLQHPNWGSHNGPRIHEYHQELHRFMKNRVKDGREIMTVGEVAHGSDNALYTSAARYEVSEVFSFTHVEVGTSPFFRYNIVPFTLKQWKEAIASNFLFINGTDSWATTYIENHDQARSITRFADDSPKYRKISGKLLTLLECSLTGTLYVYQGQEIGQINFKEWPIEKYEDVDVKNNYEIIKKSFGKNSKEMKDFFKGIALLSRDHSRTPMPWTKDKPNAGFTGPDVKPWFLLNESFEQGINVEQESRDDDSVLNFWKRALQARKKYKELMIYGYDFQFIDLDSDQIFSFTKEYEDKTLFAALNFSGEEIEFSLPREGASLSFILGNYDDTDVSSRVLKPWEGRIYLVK
Description: α-Glucosidase from Saccharomyces cerevisiae (activity ≥ 30 U/mg) and porcine bile salt (purity ≥ 60.0%) were obtained from Yuanye Bio-Technology Co., Ltd. (Shanghai, China). Pepsin (activity ≥ 800 U/mg), pancreatin (activity ≥ 4000 U/g), and amyloglucosidase (activity ≥ 10,000 U/g) were obtained from Shanghai Ryon Biological Technology Co., Ltd. The p-nitrobenzene-α-D-glucopyranoside (pNPG, purity ≥ 99.0%) was purchased from Sigma-Aldrich (Shanghai, China). Peptides LADW and EEAEGT (purity ≥ 98.0%) were synthesized by ALL PEPTIDE Biology Co., Ltd. (Hangzhou, China). All other chemicals and solvents were of analytical grade.
α-Glucosidase inhibitory activity was determined following the method of Zheng et al., with slight modifications. Briefly, 80.0 μL of phosphate-buffered saline (PBS, pH = 6.8), 20.0 μL of α-glucosidase (7 U/mL, dissolved in PBS), and 20.0 μL of the peptide (dissolved in PBS) were mixed and incubated at 37 °C for 15 min. Subsequently, 20.0 μL of pNPG (2.5 mM, dissolved in PBS) was added to the mixture, followed by another incubation at 37 °C for 15 min. To terminate the reaction, 60 μL of Na2CO3 (0.2 M, dissolved in PBS) was added, and the absorbance was measured at 405 nm using a SpectraMax M5 microplate reader (Molecular Devices, Sunnyvale, CA, USA). The α-glucosidase inhibitory rate (%) was determined using the following formula:α-glucosidase inhibitory rate (%) = [1 − (Asample − Asample blank)/(Acontrol − Acontrol blank)] × 100 where Asample and Asample blank were the absorbance values with and without α-glucosidase added, respectively; Acontrol and Acontrol blank were the absorbance values with and without peptide solution added, respectively, after replacing α-glucosidase solution with PBS solution. The above solution without addition was replaced by PBS solution.

[2] = sensory evaluation in previous work; ref [7]; cited from earlier work
Description: The intestinal stability, non-toxicity, and absorbability of peptides were considered important indicators for identifying bioactive peptides. In our previous work, these peptides were also confirmed to be non-toxic by sensory evaluation, and the peptides LADW and […] were obtained by hydrolysis with three common enzymes (pepsin, trypsin, and chymotrypsin) in the GI tract. […] Therefore, the potential α-GIPs identified in this study were presumed to withstand hy ...

[3] = design: method as in PMID 8001624; conditions: clinical practice; ref [3]; cited from earlier work
[4] = sensory evaluation in previous work; ref [7]; cited from earlier work; remark: listed apart in the source
Description: Table 1 Prediction results of physicochemical properties and potential activity of peptides. | column: Umami Threshold (mg/mL)

Compound	α-glucosidase inhibitory rate [1] [%]	IC50 [1] [mM]	Toxicity [2]	Adverse effects [3]	Umami Threshold [4] [mg/mL]
C[C@H](NC(=O)[C@H](CCC(=O)O)NC(=O)[C@@H](N)CCC(=O)O)C(=O)N[C@@H](CCC(=O)O)C(=O)NCC(=O)N[C@H](C(=O)O)[C@@H](C)O [EEAEGT] (H-EEAEGT-OH)	96.44	6.46 ± 0.22	non-toxic		
CC(C)C[C@H](N)C(=O)N[C@@H](C)C(=O)N[C@@H](CC(=O)O)C(=O)N[C@@H](Cc1c[nH]c2ccccc12)C(=O)O [LADW] (H-LADW-OH)	98.15	4.4 ± 0.04	non-toxic		
C[C@H]1O[C@H](O[C@H]2[C@H](O)[C@@H](O)[C@@H](O[C@H]3[C@H](O)[C@@H](O)C(O)O[C@@H]3CO)O[C@@H]2CO)[C@H](O)[C@@H](O)[C@@H]1N[C@H]1C=C(CO)[C@@H](O)[C@H](O)[C@H]1O (stereo partly drawn) [acarbose]				flatulence, diarrhea, and abdominal pain	
MEIDD [novel umami peptide identified in the hydrolysate of tuna skeletal myosin]					0.250
VAEQE [novel umami peptide identified in the hydrolysate of tuna skeletal myosin]					0.125
